According to publication PMC12132378 (bioRxiv, 2025):

Molecular target: T1, DTX2 (Homo sapiens, UniProt Q86UW9)
T1 sequence (Q86UW9 1-622): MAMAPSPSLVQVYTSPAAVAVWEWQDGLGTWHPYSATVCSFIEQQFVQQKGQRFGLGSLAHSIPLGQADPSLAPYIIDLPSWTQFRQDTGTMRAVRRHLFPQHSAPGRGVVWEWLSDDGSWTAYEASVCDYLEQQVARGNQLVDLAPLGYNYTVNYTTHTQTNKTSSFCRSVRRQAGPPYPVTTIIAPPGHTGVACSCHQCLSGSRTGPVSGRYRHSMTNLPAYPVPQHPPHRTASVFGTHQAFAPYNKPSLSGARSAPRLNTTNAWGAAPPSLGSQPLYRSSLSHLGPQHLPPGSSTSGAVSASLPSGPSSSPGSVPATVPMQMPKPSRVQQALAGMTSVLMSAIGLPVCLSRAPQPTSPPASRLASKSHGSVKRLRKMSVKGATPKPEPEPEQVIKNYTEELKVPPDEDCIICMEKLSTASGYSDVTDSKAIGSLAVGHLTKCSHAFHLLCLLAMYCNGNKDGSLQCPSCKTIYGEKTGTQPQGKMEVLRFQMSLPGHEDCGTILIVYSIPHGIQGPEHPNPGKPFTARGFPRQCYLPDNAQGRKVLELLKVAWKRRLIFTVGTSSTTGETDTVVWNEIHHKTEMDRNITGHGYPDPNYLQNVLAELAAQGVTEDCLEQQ
Assay: ubiquitylation of OP-ADPr, ion exchange and intact mass spectrometry
Assay type: biochemical
Conditions: co-substrate purified E2~Ub conjugate; pH 7.4, 37 °C, 150 mM NaCl

SMILES: C#CCO[C@H]1O[C@H](COP(=O)(O)OP(=O)(O)OC[C@H]2O[C@@H](n3cnc4c(N)ncnc43)[C@H](O)[C@@H]2O)[C@@H](O)[C@H]1O [compound 8, OP-ADPr]
- ubiquitylation of OP-ADPr, ion exchange and intact mass spectrometry: We next coupled Ub to OP-ADPr using DTX2 to generate an ester-linked Ub-OP-ADPr
